Reference: patent US6610675B1 (priority 1980, dated 2003)
Where “and” joins values, the source holds several entries; their conditions need not be identical. Identical values can stand only once.

How the values were obtained:
[1] = test system: blanching in humans; experiment: McKenzie-type human blanching studies; type: in vivo; details: forearm, 6 hours occlusion; for blanching: 0.03 to 0.0003 M, 50 microliter, read 1 to 5 hours after removal; for concentration causing approximately the same degree of blanching: direct comparison
Description: McKenzie-type human blanching studies were undertaken to study the blanching effects of a representative test compound of the invention, chloromethyl 17α-ethoxycarbonyloxy-11β-hydroxyandrost-4-en-3-one-17β-carboxylate.
The test compound was dissolved in ethanol/isopropyl myristate (90/10 or 70/30) at 0.03, 0.01, 0.003, 0.001 and 0.0003 M concentrations. 50 Microliter aliquots of each solution were applied to separate gauze portions of a bandage of the type commonly used for allergy testing and the bandage was applied to the forearm. After 6 hours of occlusion, the bandage was removed.

[2] = test system: ear swelling induced by croton oil; experiment: Ear edema test; type: in vivo, rat; details: for Ear Weight, % Increase / Ear Weight, % Inhibition / Ear Weight, Inflamed Ear / Ear Weight, Untreated Ear: 6 hr; for Relative organ weight Adrenals / Relative organ weight Thymus: 48 hours
Description: The test animals were Sprague/Dawley rats weighing approximately 150 grams each. In treatment groups, selected amounts of the test compound were dissolved in acetone containing 5% croton oil and 50 microliters of the solution were applied to the inner surface of the right ear of the rats. A control group was identically treated with vehicle only, i.e. 5% croton oil in acetone. Six hours after croton oil challenge, a constant region of each ear was removed by dissection under anesthesia. Then, 48 hours after steroid treatment, the animals were sacrificed and the thymi and adrenals were removed and weighed. The test results showing the inhibitory effect of topically applied steroids on the ear swelling induced by croton oil are summarized in Table II below.

[3] = test system: granulation tissue formation caused by implantation of cotton pellets; experiment: Granuloma formation test (local cotton pellet granuloma assay); type: in vivo, rat; details: Table III
Description: The test compound was dissolved in acetone and aliquots of varying concentrations were injected into cotton pellets. The pellets were dried and then one pellet was implanted beneath the skin of each test rat. Six days later, the animals were sacrificed and the granulation tissue (granuloma) which formed in and around the implanted pellet was removed, dried and weighed. In addition, the thymi and adrenals were removed and weighed.

[4] = test system: thymus weight in rats; experiment: Thymus involution test (topically administered steroids, thymus weight in rats); details: for Total Weight per Rat, % Gain ± SD / Total Weight per Rat, Final / mg Thymus ± SD / 100 g Rat: 0.75 μmol topical on ear, after 24 hours
Description: The test animals were female Sprague/Dawley rats weighing approximately 40-45 grams each. One side of each ear of each rat was treated with a total of 25 microliters of a solution (ethanol/isopropyl myristate or acetone/isopropyl myristate, 90/10) containing the amount of test compound indicated below. Animals which were treated identically, save for omission of the test compound, served as controls. After 24 hours, all rats were sacrificed and weighed, and their thymi were removed and weighed.
The lower the weight of the thymi, the greater the systemic activity.

CCOC(=O)O[C@]1(C(=O)OCCl)CC[C@H]2[C@@H]3CCC4=CC(=O)CC[C@]4(C)[C@H]3[C@@H](O)C[C@@]21C [chloromethyl 17α-ethoxycarbonyloxy-11β-hydroxyandrost-4-en-3-one-17β-carboxylate]
blanching [1]: blanching was observed even at the lowest concentrations | concentration causing approximately the same degree of blanching [1]: ~0.001 M | Ear Weight, % Increase ([2]; 0.3 mg/kg topical): 23.3 ± 7.2 % | Ear Weight, % Inhibition ([2]; 0.3 mg/kg topical): 62.1% | Ear Weight, Inflamed Ear ([2]; 0.3 mg/kg topical): 62.2 ± 3.0 mg | Ear Weight, Untreated Ear ([2]; 0.3 mg/kg topical): 50.8 ± 2.4 mg | Relative organ weight Adrenals ([2]; 0.3 mg/kg topical): 26.0 ± 2.5 mg/100 g body wt. | Relative organ weight Thymus ([2]; 0.3 mg/kg topical): 290 ± 25 mg/100 g body wt. | Ear Weight, % Increase ([2]; 1 mg/kg topical): 14.0 ± 6.5 % | Ear Weight, % Inhibition ([2]; 1 mg/kg topical): 77.2% | Ear Weight, Inflamed Ear ([2]; 1 mg/kg topical): 55.0 ± 2.6 mg | Ear Weight, Untreated Ear ([2]; 1 mg/kg topical): 48.4 ± 1.0 mg | Relative organ weight Adrenals ([2]; 1 mg/kg topical): 18.7 ± 1.4 mg/100 g body wt. | Relative organ weight Thymus ([2]; 1 mg/kg topical): 293 ± 21 mg/100 g body wt. | Ear Weight, % Increase ([2]; 3 mg/kg topical): 3.7 ± 8.1 % | Ear Weight, % Inhibition ([2]; 3 mg/kg topical): 94.0% | Ear Weight, Inflamed Ear ([2]; 3 mg/kg topical): 52.6 ± 1.8 mg | Ear Weight, Untreated Ear ([2]; 3 mg/kg topical): 51.6 ± 3.2 mg | Relative organ weight Adrenals ([2]; 3 mg/kg topical): 20.3 ± 0.8 mg/100 g body wt. | Relative organ weight Thymus ([2]; 3 mg/kg topical): 288 ± 21 mg/100 g body wt. | swelling of the ear caused by croton oil (in words) ([2]; topical, Table II): substantially inhibited the swelling | thymus weight as compared to the control (in words) ([2]; topical, Table II): did not significantly decrease the thymus weight as compared to the control | Body wt. gain ([3]; 0.1 mg/pellet): 36.0 ± 2.8 g | Granulation tissue Dry wt. ([3]; 0.1 mg/pellet): 34.7 ± 4.3 mg/100 g body wt. | Granulation tissue Inhibition ([3]; 0.1 mg/pellet): 20.6% | Relative organ weight Adrenals ([3]; 0.1 mg/pellet): 22.9 ± 2.6 mg/100 g body wt. | Relative organ weight Adrenals (Decrease %) ([3]; 0.1 mg/pellet): (3.4) % | Relative organ weight Thymus ([3]; 0.1 mg/pellet): 282 ± 13 mg/100 g body wt. | Relative organ weight Thymus (Decrease %) ([3]; 0.1 mg/pellet): (13.5) % | Body wt. gain ([3]; 0.3 mg/pellet): 33.0 ± 1.3 g | Granulation tissue Dry wt. ([3]; 0.3 mg/pellet): 25.3 ± 2.3 mg/100 g body wt. | Granulation tissue Inhibition ([3]; 0.3 mg/pellet): 42.1% | Relative organ weight Adrenals ([3]; 0.3 mg/pellet): 22.8 ± 1.0 mg/100 g body wt. | Relative organ weight Adrenals (Decrease %) ([3]; 0.3 mg/pellet): (3.8) % | Relative organ weight Thymus ([3]; 0.3 mg/pellet): 298 ± 16 mg/100 g body wt. | Relative organ weight Thymus (Decrease %) ([3]; 0.3 mg/pellet): (8.6) % | Body wt. gain ([3]; 1 mg/pellet): 32.8 ± 0.9 g | Granulation tissue Dry wt. ([3]; 1 mg/pellet): 14.0 ± 1.8 mg/100 g body wt. | Granulation tissue Inhibition ([3]; 1 mg/pellet): 68.0% | Relative organ weight Adrenals ([3]; 1 mg/pellet): 21.8 ± 1.3 mg/100 g body wt. | Relative organ weight Adrenals (Decrease %) ([3]; 1 mg/pellet): (8.0) % | Relative organ weight Thymus ([3]; 1 mg/pellet): 304 ± 10 mg/100 g body wt. | Relative organ weight Thymus (Decrease %) ([3]; 1 mg/pellet): (6.7) % | Body wt. gain ([3]; 3 mg/pellet): 30.7 ± 1.5 g | Granulation tissue Dry wt. ([3]; 3 mg/pellet): 18.7 ± 2.3 mg/100 g body wt. | Granulation tissue Inhibition ([3]; 3 mg/pellet): 57.2% | Relative organ weight Adrenals ([3]; 3 mg/pellet): 19.6 ± 1.1 mg/100 g body wt. | Relative organ weight Adrenals (Decrease %) ([3]; 3 mg/pellet): (17.3) % | Relative organ weight Thymus ([3]; 3 mg/pellet): 278 ± 21 mg/100 g body wt. | Relative organ weight Thymus (Decrease %) ([3]; 3 mg/pellet): (14.7) % | Total Weight per Rat, % Gain ± SD [4]: 33 ± 6% | Total Weight per Rat, Final [4]: 60.60 g | mg Thymus ± SD / 100 g Rat [4]: 309 ± 24 mg/100 g

CC(C)OC(=O)OC1(C(=O)OCCl)[C@H](C)C[C@H]2[C@@H]3CCC4=CC(=O)C=C[C@]4(C)[C@@]3(F)C(=O)C[C@@]21C (stereo partly shown)
melting point: 138 to 140 °C

COC(=O)O[C@]1(C(=O)OCCl)CCC2C3CCC4=CC(=O)CCC4(C)C3C(O)CC21C (stereo partly drawn) [chloromethyl 11β-hydroxy-17α-methoxycarbonyloxyandrost-4-en-3-one-17β-carboxylate]
Granulation tissue Dry wt. ([3]; 1 mg/pellet): 24.6 ± 2.6 mg/100 g body wt. | Granulation tissue Inhibition ([3]; 1 mg/pellet): 43.7% | melting point: 171 to 173 °C

C[C@]12CCC(=O)C=C1CC[C@@H]1[C@@H]2[C@@H](O)C[C@@]2(C)[C@H]1CC[C@]2(O)C(=O)CO [Hydrocortisone]
blanching [1]: blanching was not observed at concentrations of hydrocortisone below 0.03 M | concentration causing approximately the same degree of blanching [1]: ~0.03 M | decrease in thymus weight compared to the control (in words) ([4]; 0.75 μmol topical): causes a significant decrease in thymus weight compared to the control | Total Weight per Rat, % Gain ± SD [4]: 24 ± 7% | Total Weight per Rat, Final [4]: 61.15 g | mg Thymus ± SD / 100 g Rat [4]: 274 ± 45 mg/100 g

CCOC(=O)O[C@]1(C(=O)OCSC)CCC2C3CCC4=CC(=O)CCC4(C)C3C(O)CC21C (stereo partly shown)
melting point: 133 to 136 °C and 137.5 to 138 °C
